Measurements from ChEMBL document CHEMBL5528077, “Structure-Based Discovery of High-Affinity Small Molecule Ligands and Development of Tool Probes to Study the Role of Chitinase-3-Like Protein 1” (J Med Chem, 2024).

Assays:
in vivo [1] = conditions: BALB/c, mouse, po, 10 mg/kg
in vivo [2] = conditions: BALB/c, mouse, iv, 3 mg/kg
in vivo [3] = conditions: BALB/c, mouse, iv, 3 mg/kg; remark: listed apart in the source

Row | bioavailability (in vivo [1]) | clearance (in vivo [2]) | Vd (in vivo [3]) | SMILES
1 | 5.6% | 69 mL/min/kg | 9.25 L/kg | CC(C)CN1C[C@H](Cc2ccc(Cl)cc2)N(C2CCN(c3ccccn3)CC2)C[C@@H]1C
2 |  | 58 mL/min/kg | 2.5 L/kg | Cc1ccnc(N2CCC(N3C[C@H](C)OC[C@@H]3Cc3ccc(Cl)cc3)CC2)c1
